Results taken from patent publication US9663460B2, “Sulfur derivatives as chemokine receptor modulators” (ALLERGAN, INC., priority 2010, dated 2017).

What follows are compounds tested against CCR2 (Homo sapiens (Human), UniProt P41597) (assay: Calcium activity assayed on the FLIPR Tetra in HEK-Gqi5 cells stably expressing CCR2). Conditions: FLIPR Tetra calcium assay.
Assay type: cell-based
Method: HEK-Gqi5 cells stably expressing CCR2 were cultured in (DMEM high glucose, 10% FBS, 1% PSA, 400 μg/ml geneticin and 50 μg/ml hygromycin. Appropriate positive control chemokines (MCP-1, MIP1A or RANTES) was used as the positive control agonist for screening compound-induced calcium activity assayed on the FLIPR^Tetra. The drug plates were prepared in 384-well microplates using the EP3 and the MuItiPROBE robotic liquid handling systems. Compounds were synthesized and tested for CCR^2 activity.

CCR2, sequence (P41597 whole entry, species assumed): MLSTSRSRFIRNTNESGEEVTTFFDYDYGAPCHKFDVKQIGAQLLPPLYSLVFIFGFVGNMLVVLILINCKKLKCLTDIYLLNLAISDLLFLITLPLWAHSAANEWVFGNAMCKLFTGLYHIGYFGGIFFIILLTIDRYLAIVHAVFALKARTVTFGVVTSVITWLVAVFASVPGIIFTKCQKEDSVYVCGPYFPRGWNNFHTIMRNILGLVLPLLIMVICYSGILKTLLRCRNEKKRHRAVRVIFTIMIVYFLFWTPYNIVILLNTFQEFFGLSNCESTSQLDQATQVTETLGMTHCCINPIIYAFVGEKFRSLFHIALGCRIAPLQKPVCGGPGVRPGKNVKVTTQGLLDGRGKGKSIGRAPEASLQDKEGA

Compound	CCR2 % ANTAGONISM [%]	IC50 [nM]
CN(C)C(=O)CS(=O)(=O)c1ccc(Cl)cc1NS(=O)(=O)c1ccc(Cl)c(C(F)(F)F)c1 [2-{[4-chloro-2-({[4-chloro-3-(trifluoromethyl)phenyl]sulfonyl}amino)phenyl]sulfonyl}-N,N-dimethylacetamide]	98	462
CN(C)C(=O)CSc1ccc(Cl)cc1NS(=O)(=O)c1ccc(Cl)c(C(F)(F)F)c1 [2-{[4-chloro-2-({[4-chloro-3-(trifluoromethyl)phenyl]sulfonyl}amino)phenyl]thio}-N,N-dimethylacetamide]	92	118
C[S+]([O-])c1ccc(Cl)cc1NS(=O)(=O)c1ccc(Cl)c(Cl)c1 (centres unmarked) [3,4-dichloro-N-[5-chloro-2-(methylsulfinyl)phenyl]benzenesulfonamide]	87	44
CN(C)C(=O)CCSc1ccc(Cl)cc1NS(=O)(=O)c1cc2ccccc2o1 [3-({2-[(1-benzofuran-2-ylsulfonyl)amino]-4-chlorophenyl}thio)-N,N-dimethylpropanamide]	100	146
CN(C)C(=O)CC[S+]([O-])c1ccc(Cl)cc1NS(=O)(=O)c1ccc(F)cc1F (centres unmarked) [3-[(4-chloro-2-{[(2,4-difluorophenyl)sulfonyl]amino}phenyl)sulfinyl]-N,N-dimethylpropanamide]	93	1480
CN(C)C(=O)CCSc1ccc(Cl)cc1NS(=O)(=O)c1ccc(F)cc1F [3-[(4-chloro-2-{[(2,4-difluorophenyl)sulfonyl]amino}phenyl)thio]-N,N-dimethylpropanamide]	43	2150
CN(C)C(=O)CCS(=O)(=O)c1ccc(Cl)cc1NS(=O)(=O)c1ccc(Cl)cc1F [3-[(4-chloro-2-{[(4-chloro-2-fluorophenyl)sulfonyl]amino}phenyl)sulfonyl]-N,N-dimethylpropanamide]	97	211
CS(=O)(=O)c1ccc(Cl)cc1NS(=O)(=O)c1cccc(Cl)c1F [3-chloro-N-[5-chloro-2-(methylsulfonyl)phenyl]-2-fluorobenzenesulfonamide]	101	116
NC(=O)CC[S+]([O-])c1ccc(Cl)cc1NS(=O)(=O)c1ccc(Cl)c(C(F)(F)F)c1 (centres unmarked) [3-{[4-chloro-2-({[4-chloro-3-(trifluoromethyl)phenyl]sulfonyl}amino)phenyl]sulfinyl}propanamide]	99	797
CN(C)C(=O)CCS(=O)(=O)c1ccc(Cl)cc1NS(=O)(=O)c1ccc(Cl)c(C(F)(F)F)c1 [3-{[4-chloro-2-({[4-chloro-3-(trifluoromethyl)phenyl]sulfonyl}amino)phenyl]sulfonyl}-N,N-dimethylpropanamide]	93	217
CN(C)C(=O)CCC[S+]([O-])c1ccc(Cl)cc1NS(=O)(=O)c1cc2ccccc2o1 (centres unmarked) [4-({2-[(1-benzofuran-2-ylsulfonyl)amino]-4-chlorophenyl}sulfinyl)-N,N-dimethylbutanamide]	54	
CN(C)C(=O)CCCS(=O)(=O)c1ccc(Cl)cc1NS(=O)(=O)c1cc2ccccc2o1 [4-({2-[(1-benzofuran-2-ylsulfonyl)amino]-4-chlorophenyl}sulfonyl)-N,N-dimethylbutanamide]	98	1000
CCSc1ccc(Cl)cc1NS(=O)(=O)c1ccc(Cl)c(C(F)(F)F)c1 [4-chloro-N-[5-chloro-2-(ethylthio)phenyl]-3-(trifluoromethyl)benzenesulfonamide]	81	193
CC(C)Sc1ccc(Cl)cc1NS(=O)(=O)c1ccc(Cl)c(C(F)(F)F)c1 [4-chloro-N-[5-chloro-2-(isopropylthio)phenyl]-3-(trifluoromethyl)benzenesulfonamide]	72	379
C[S+]([O-])c1ccc(Cl)cc1NS(=O)(=O)c1ccc(Cl)c(C(F)(F)F)c1 (centres unmarked) [4-chloro-N-[5-chloro-2-(methylsulfinyl)phenyl]-3-(trifluoromethyl)benzenesulfonamide]	78	14

Further compounds by falling IC50, results first:

CCR2 % ANTAGONISM [%]	IC50 [nM]	Compound
94	1920	CSc1ccc(Cl)cc1NS(=O)(=O)c1cccc(Cl)c1F [3-chloro-N-[5-chloro-2-(methylthio)phenyl]-2-fluorobenzenesulfonamide]
93	1790	CC(C)NC(=O)CC[S+]([O-])c1ccc(Cl)cc1NS(=O)(=O)c1ccc(Cl)c(C(F)(F)F)c1 (centres unmarked) [3-{[4-chloro-2-({[4-chloro-3-(trifluoromethyl)phenyl]sulfonyl}amino)phenyl]sulfinyl}-N-isopropylpropanamide]
89	1580	CN(C)C(=O)CCS(=O)(=O)c1ccc(Cl)cc1NS(=O)(=O)c1ccc(F)cc1F [3-[(4-chloro-2-{[(2,4-difluorophenyl)sulfonyl]amino}phenyl)sulfonyl]-N,N-dimethylpropanamide]
76	1330	CSc1ccc(Cl)cc1NS(=O)(=O)c1ccc(Br)cc1 [4-bromo-N-[5-chloro-2-(methylthio)phenyl]benzenesulfonamide]
59	1030	CC(C)NC(=O)CCSc1ccc(Cl)cc1NS(=O)(=O)c1ccc(Cl)c(C(F)(F)F)c1 [3-{[4-chloro-2-({[4-chloro-3-(trifluoromethyl)phenyl]sulfonyl}amino)phenyl]thio}-N-isopropylpropanamide]
78	771	CN(C)C(=O)CCSc1ccc(Cl)cc1NS(=O)(=O)c1ccc(Cl)cc1F [3-[(4-chloro-2-{[(4-chloro-2-fluorophenyl)sulfonyl]amino}phenyl)thio]-N,N-dimethylpropanamide]
85	509	O=[N+]([O-])c1cccc([S+]([O-])c2ccc(Cl)cc2NS(=O)(=O)c2ccc(Cl)c(C(F)(F)F)c2)c1 (centres unmarked)
80	506	CN(C)C(=O)CCSc1ccc(Cl)cc1NS(=O)(=O)c1ccc(Cl)c(C(F)(F)F)c1 [3-{[4-chloro-2-({[4-chloro-3-(trifluoromethyl)phenyl]sulfonyl}amino)phenyl]thio}-N,N-dimethylpropanamide]
96	469	CNC(=O)CS(=O)(=O)c1ccc(Cl)cc1NS(=O)(=O)c1ccc(Cl)c(C(F)(F)F)c1 [2-{[4-chloro-2-({[4-chloro-3-(trifluoromethyl)phenyl]sulfonyl}amino)phenyl]sulfonyl}-N-methylacetamide]
84	403	CS(=O)(=O)c1ccc(Cl)cc1NS(=O)(=O)c1ccc(Br)cc1 [4-bromo-N-[5-chloro-2-(methylsulfonyl)phenyl]benzenesulfonamide]
91	329	CNC(=O)C[S+]([O-])c1ccc(Cl)cc1NS(=O)(=O)c1ccc(Cl)c(C(F)(F)F)c1 (centres unmarked) [2-{[4-chloro-2-({[4-chloro-3-(trifluoromethyl)phenyl]sulfonyl}amino)phenyl]sulfinyl}-N-methylacetamide]
100	268	CN(C)C(=O)C[S+]([O-])c1ccc(Cl)cc1NS(=O)(=O)c1ccc(Cl)c(C(F)(F)F)c1 (centres unmarked) [2-{[4-chloro-2-({[4-chloro-3-(trifluoromethyl)phenyl]sulfonyl}amino)phenyl]sulfinyl}-N,N-dimethylacetamide]
99	221	CN(C)C(=O)CC[S+]([O-])c1ccc(Cl)cc1NS(=O)(=O)c1ccc(Cl)cc1F (centres unmarked) [3-[(4-chloro-2-{[(4-chloro-2-fluorophenyl)sulfonyl]amino}phenyl)sulfinyl]-N,N-dimethylpropanamide]
104	160	CN(C)C(=O)CC[S+]([O-])c1ccc(Cl)cc1NS(=O)(=O)c1cc2ccccc2o1 (centres unmarked) [3-({2-[(1-benzofuran-2-ylsulfonyl)amino]-4-chlorophenyl}sulfinyl)-N,N-dimethylpropanamide]
94	116	C[S+]([O-])c1ccc(Cl)cc1NS(=O)(=O)c1ccc(Br)cc1 (centres unmarked) [4-bromo-N-[5-chloro-2-(methylsulfinyl)phenyl]benzenesulfonamide]
89	96	CN(C)C(=O)CC[S+]([O-])c1ccc(Cl)cc1NS(=O)(=O)c1ccc(Cl)c(C(F)(F)F)c1 (centres unmarked) [3-{[4-chloro-2-({[4-chloro-3-(trifluoromethyl)phenyl]sulfonyl}amino)phenyl]sulfinyl}-N,N-dimethylpropanamide]
90	88	CCS(=O)(=O)c1ccc(Cl)cc1NS(=O)(=O)c1ccc(Cl)c(C(F)(F)F)c1 [4-chloro-N-[5-chloro-2-(ethylsulfonyl)phenyl]-3-(trifluoromethyl)benzenesulfonamide]
103	85	C[S+]([O-])c1ccc(Cl)cc1NS(=O)(=O)c1ccc(Cl)cc1F (centres unmarked) [4-chloro-N-[5-chloro-2-(methylsulfinyl)phenyl]-2-fluorobenzenesulfonamide]
99	76	CN(C)C(=O)CCS(=O)(=O)c1ccc(Cl)cc1NS(=O)(=O)c1cc2ccccc2o1 [3-({2-[(1-benzofuran-2-ylsulfonyl)amino]-4-chlorophenyl}sulfonyl)-N,N-dimethylpropanamide]
101	61	C[S+]([O-])c1ccc(Cl)cc1NS(=O)(=O)c1cccc(Cl)c1F (centres unmarked) [3-chloro-N-[5-chloro-2-(methylsulfinyl)phenyl]-2-fluorobenzenesulfonamide]
78	50	CC[S+]([O-])c1ccc(Cl)cc1NS(=O)(=O)c1ccc(Cl)c(C(F)(F)F)c1 (centres unmarked) [4-chloro-N-[5-chloro-2-(ethylsulfinyl)phenyl]-3-(trifluoromethyl)benzenesulfonamide]
